{"source": "paper PMC7356228", "about": "“Alvaxanthone, a Thymidylate Synthase Inhibitor with Nematocidal and Tumoricidal Activities” (Molecules, 2020)", "key": {"U-118 MG cells [1]": {"test_system": "U-118 MG cells", "test": "Intracellular ATP level (CellTiterGlo)", "assay_type": "cell-based, human", "conditions": "48-h incubation, glioma cells", "protocol": "(§1) Figure 4 Changes of caspase-3/7 activities and intracellular ATP level in BJ, U-118 MG, and SCC-15 cells after 48-h incubation with 5–40 µM alvaxanthone or rheediaxanthone B. Median results are presented of three independent experiments, each performed in triplicate. The whiskers are lower (25%) and upper (75%) quartile ranges.\n(§2) On the other hand, rheediaxanthone B caused a reduction of ATP level down to around 30% in glioma cells and fibroblasts, and to 20% in squamous carcinoma cells (Figure 4). In general, with increasing Caspase-3/7 activity the ATP level was decreasing, in accord with the results of Reference.\n(§3) Influence of selected compounds on cells was tested by performing the cytotoxicity (NR and XTT) assays, proliferation assay, cell adhesion assay, cell migration assay, determination of intracellular ATP level, and apoptosis assay as previously reported."}, "BJ cells [2]": {"test_system": "BJ cells", "test": "Intracellular ATP level (CellTiterGlo)", "assay_type": "cell-based, human", "conditions": "48-h incubation, fibroblasts", "protocol": "as §1, §2, §3"}, "SCC-15 cells [3]": {"test_system": "SCC-15 cells", "test": "Intracellular ATP level (CellTiterGlo)", "assay_type": "cell-based, human", "conditions": "48-h incubation, squamous carcinoma cells", "protocol": "as §1, §2, §3"}, "TsTS": {"target": "TsTS (Trichinella spiralis, UniProt Q9NDD3)", "sequence (Q9NDD3 entry or part of it)": "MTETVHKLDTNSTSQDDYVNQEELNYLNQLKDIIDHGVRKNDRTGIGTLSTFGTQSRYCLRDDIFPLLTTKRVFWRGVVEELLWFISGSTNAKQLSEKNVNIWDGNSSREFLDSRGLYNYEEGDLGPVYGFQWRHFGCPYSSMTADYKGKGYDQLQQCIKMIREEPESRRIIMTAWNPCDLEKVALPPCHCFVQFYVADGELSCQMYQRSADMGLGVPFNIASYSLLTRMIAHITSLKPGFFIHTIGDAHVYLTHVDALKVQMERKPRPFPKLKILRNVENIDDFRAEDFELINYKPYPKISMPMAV", "test": "Inhibition of TS-catalyzed reaction (tritium release from [5-3H]dUMP)", "assay_type": "biochemical, T. spiralis", "conditions": "for remaining activity at 100 µM: compound 100 µM", "from_the_text": "(§4) The recombinant human, rat, mouse, T. spiralis and C. elegans TS proteins were produced, purified and separated into phosphorylated and non-phosphorylated fraction, as previously described. TS activity was monitored, following tritium release from [5-^3H]dUMP, and its inhibition studied as earlier reported."}, "[4]": {"test_system": "SCC-15 human squamous carcinoma cells", "test": "Cytotoxicity, neutral red uptake (NR) assay", "assay_type": "cell-based", "conditions": "Homo sapiens, SCC-15, neutral red assay, read-out: IC50", "protocol": "(§5) Biological effect of alvaxanthone and rheediaxanthone B on normal (BJ) and cancer cells (U-118 MG and SCC-15) was estimated using two viability assays, the neutral red uptake (NR) and tetrazolium salts reduction (XTT) assays.\n(§6) Human glioblastoma cells U-118 MG (ATCC® HTB-15), human squamous carcinoma cells SCC-15 (ATCC® CRL-1623), and normal human skin fibroblasts (ATCC® CRL-2522) were grown, their morphology checked, and number and viability estimated as earlier presented.\nas §3"}, "[5]": {"test_system": "U-118 MG human glioblastoma cells", "test": "Cytotoxicity, neutral red uptake (NR) assay", "assay_type": "cell-based", "conditions": "neutral red assay, U-118 MG, read-out: IC50", "protocol": "as §5, §6, §3"}, "[6]": {"test_system": "BJ, U-118 MG and SCC-15 cells", "test": "NR assay, summary over the three cell lines", "assay_type": "cell-based, human", "conditions": "Homo sapiens, 48 h, span over BJ", "protocol": "as §5\nThus, alvaxanthone may be damaging mitochondria and impairing their metabolism exerting one of possible mechanisms active in destroying cancer cells. Changes of cell morphology in dependence on increasing alvaxanthone and rheediaxanthone B concentration were also recorded. While the glioma and squamous carcinoma cells formed clusters, lost their adhesion, shrank, and accumulated less NR dye, normal fibroblasts preserved rather normal shapes but the amount of the neutral red dye and confluence of cells decreased. In addition, a lower number of BJ cells was detected (Figure 1B).\nas §3"}, "CeTS": {"target": "T1, CeTS (Caenorhabditis elegans, UniProt Q9Y052)", "T1 sequence (Q9Y052 1-315)": "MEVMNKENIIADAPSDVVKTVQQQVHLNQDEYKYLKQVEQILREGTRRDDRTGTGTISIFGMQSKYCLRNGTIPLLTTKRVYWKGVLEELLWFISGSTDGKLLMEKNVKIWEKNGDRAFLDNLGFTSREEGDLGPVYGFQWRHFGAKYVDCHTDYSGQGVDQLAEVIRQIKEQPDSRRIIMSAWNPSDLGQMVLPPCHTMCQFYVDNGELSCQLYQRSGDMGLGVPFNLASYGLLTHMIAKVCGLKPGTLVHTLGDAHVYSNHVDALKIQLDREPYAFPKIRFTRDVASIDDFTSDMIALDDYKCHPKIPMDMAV", "test": "Inhibition of TS-catalyzed reaction (tritium release from [5-3H]dUMP)", "assay_type": "biochemical, C. elegans", "conditions": "for remaining activity at 10 µM: compound 10 µM; for remaining activity at 10 µM / remaining activity at 100 µM: 20 µM dUMP, 50 µM meTHF; for remaining activity at 100 µM: compound 100 µM, read-out: % Remaining Activity", "from_the_text": "as §4"}, "mTS": {"target": "T2, mTS (Mus musculus, UniProt P07607)", "T2 construct": "made in house", "T2 sequence (P07607 whole entry)": "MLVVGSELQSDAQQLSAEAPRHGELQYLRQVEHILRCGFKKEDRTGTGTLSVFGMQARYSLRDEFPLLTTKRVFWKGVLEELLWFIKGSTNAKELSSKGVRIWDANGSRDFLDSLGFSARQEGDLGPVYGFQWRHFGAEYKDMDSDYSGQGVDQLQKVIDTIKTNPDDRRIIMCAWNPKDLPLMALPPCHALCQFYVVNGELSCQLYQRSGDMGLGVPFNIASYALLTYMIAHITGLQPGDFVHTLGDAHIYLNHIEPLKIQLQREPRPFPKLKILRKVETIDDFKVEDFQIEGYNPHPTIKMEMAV", "test": "Inhibition of TS-catalyzed reaction (tritium release from [5-3H]dUMP)", "assay_type": "biochemical", "conditions": "for remaining activity at 10 µM: compound 10 µM; for remaining activity at 10 µM / remaining activity at 100 µM: 20 µM dUMP, 50 µM meTHF; for remaining activity at 100 µM: compound 100 µM, read-out: % Remaining Activity", "from_the_text": "as §4"}, "hTS": {"target": "T3, hTS (Homo sapiens, UniProt P04818)", "T3 construct": "made in house", "T3 sequence (P04818 whole entry)": "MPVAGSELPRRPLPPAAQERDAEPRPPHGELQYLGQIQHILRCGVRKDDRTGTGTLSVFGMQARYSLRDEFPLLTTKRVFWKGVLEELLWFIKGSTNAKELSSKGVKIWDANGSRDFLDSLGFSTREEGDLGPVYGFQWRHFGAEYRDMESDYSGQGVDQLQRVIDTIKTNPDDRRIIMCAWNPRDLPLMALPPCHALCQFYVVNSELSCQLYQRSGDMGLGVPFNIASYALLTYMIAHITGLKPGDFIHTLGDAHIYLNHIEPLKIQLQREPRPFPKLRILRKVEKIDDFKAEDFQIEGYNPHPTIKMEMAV", "test": "Inhibition of TS-catalyzed reaction (tritium release from [5-3H]dUMP)", "assay_type": "biochemical", "conditions": "for remaining activity at 10 µM: compound 10 µM; for remaining activity at 10 µM / remaining activity at 100 µM: 20 µM dUMP, 50 µM meTHF; for remaining activity at 100 µM: compound 100 µM, read-out: % Remaining Activity", "from_the_text": "as §4"}, "C. elegans [7]": {"test_system": "C. elegans", "test": "Toxicity to C. elegans (population growth)", "conditions": "Caenorhabditis elegans, read-out: LC50 (reduction of growth of the nematode population)", "protocol": "C. elegans was maintained as previously described. The effect of the compounds studied on C. elegans population growth was determined as earlier presented."}, "[8]": {"test_system": "BJ normal human skin fibroblasts", "test": "Cytotoxicity, neutral red uptake (NR) assay", "assay_type": "cell-based", "conditions": "Homo sapiens, Skin fibroblast; neutral red assay, BJ; read-out: IC50", "protocol": "as §5, §6, §3"}, "U-118 MG cells [9]": {"test_system": "U-118 MG cells", "test": "Cell adhesion, crystal violet assay", "assay_type": "cell-based, human", "conditions": "48-h treatment", "protocol": "(§7) Cancer metastasis, resulting from an impairment of adhesion between cancer cells and the extracellular matrix may cause cell migration from a primary tumor into distant parts of an organism. The cristal violet assay was used to examine alvaxanthone and rheediaxanthone B ability to influence cellular adhesion.\n(§8) Figure 3 Influence of alvaxanthone or rheediaxanthone B on BJ, U-118 MG, and SCC-15 cells adhesion after 48-h treatment. The crystal violet assay was used. Results are medians of triplicate assays of three independent experiments expressed as a % of non-treated controls. The whiskers are lower (25%) and upper (75%) quartile ranges. * p ≤ 0.05, Kruskal–Wallis test (against non-treated control).\nas §3"}, "BJ cells [10]": {"test_system": "BJ cells", "test": "Cell adhesion, crystal violet assay", "assay_type": "cell-based, human", "conditions": "48-h treatment", "protocol": "as §7, §8, §3"}, "SCC-15 cells [11]": {"test_system": "SCC-15 cells", "test": "Cell adhesion, crystal violet assay", "assay_type": "cell-based, human", "conditions": "48-h treatment", "protocol": "as §7, §8, §3"}, "[12]": {"test_system": "caspases 3/7 in BJ, U-118 MG, and SCC-15 cells", "test": "Apo-ONE Homogenous Caspase-3/7 Assay", "assay_type": "cell-based, human", "conditions": "48 h, 5–40 µM, span over the three cell lines", "protocol": "as §1\nThe Apo-ONE® Homogenous Caspase-3/7 Assay provides a measurement of the executioner caspases 3/7 activation, characteristic for apoptosis induced via both the intrinsic and extrinsic pathway. It was used to determine apoptosis induction in cells by alvaxanthone and rheediaxanthone B. In each of the three cell lines, compared to the respective non-treated control, treatment with each of the two compounds for 48 h led to a significant activation of the caspases 3/7 (by 2- to 10-fold for alvaxanthone and 8- to 18-fold for rheediaxanthone B), the effect being stronger in cancer than normal cells (Figure 4).\nas §3"}, "C. elegans [13]": {"test_system": "C. elegans", "conditions": "read-out: LC50 (C. elegans population growth); previously found; cited from earlier work"}, "[14]": {"conditions": "20 µM dUMP and 50 µM meTHF, experiment not repeated, read-out: IC50"}}, "note": "Where two headings read alike, the source gives them in different places.", "data": [{"smiles": "C=CC(C)(C)c1c2c(c3oc4c(O)c(O)ccc4c(=O)c3c1O)C(C)(C)C(C)O2", "note": "(stereo not drawn) [Rheediaxanthone B (17), Rheediaxanthone B]", "values": [{"measurement": "ATP level reduced down to", "setting": "U-118 MG cells [1]", "result": "around 30%"}, {"measurement": "ATP level reduced down to", "setting": "BJ cells [2]", "result": "around 30%"}, {"measurement": "ATP level reduced down to", "setting": "SCC-15 cells [3]", "result": 20, "unit": "%"}, {"measurement": "IC50", "setting": "TsTS; IC50, 20 µM dUMP and 50 µM meTHF, mean ± S.E.M. (N=3) for alvaxanthone, rheediaxanthone B not repeated", "result": 50.8, "unit": "µM"}, {"measurement": "remaining activity at 10 µM", "setting": "TsTS; compound 10 µM, 20 µM dUMP, 50 µM meTHF", "result": 68, "unit": "%"}, {"measurement": "remaining activity at 100 µM", "setting": "TsTS; 20 µM dUMP, 50 µM meTHF", "result": 40, "unit": "%"}, {"measurement": "IC50", "setting": "[4]", "result": 9.2, "unit": "µM"}, {"measurement": "IC50", "setting": "[5]", "result": 4.75, "unit": "µM"}, {"measurement": "IC50", "setting": "[6]", "result": "< 10", "unit": "µM"}, {"measurement": "IC50", "setting": "CeTS; [14]", "result": 11.4, "unit": "µM"}, {"measurement": "remaining activity at 10 µM", "setting": "CeTS", "result": 59, "unit": "%"}, {"measurement": "remaining activity at 100 µM", "setting": "CeTS", "result": 14, "unit": "%"}, {"measurement": "IC50", "setting": "mTS; [14]", "result": 14.3, "unit": "µM"}, {"measurement": "remaining activity at 10 µM", "setting": "mTS", "result": 56, "unit": "%"}, {"measurement": "remaining activity at 100 µM", "setting": "mTS", "result": 2, "unit": "%"}, {"measurement": "IC50", "setting": "hTS; 20 µM dUMP and 50 µM meTHF, mean ± S.E.M. (N=3) for alvaxanthone, rheediaxanthone B not repeated, read-out: IC50", "result": 17.9, "unit": "µM"}, {"measurement": "remaining activity at 10 µM", "setting": "hTS", "result": 59, "unit": "%"}, {"measurement": "remaining activity at 100 µM", "setting": "hTS", "result": 5, "unit": "%"}, {"measurement": "LC50", "setting": "C. elegans [7]", "result": "16 ± 10.2", "unit": "µM"}, {"measurement": "IC50", "setting": "[8]", "result": 5.5, "unit": "µM"}, {"measurement": "concentration at which reduction of adhesion is significant/apparent", "setting": "U-118 MG cells [9]", "result": 10, "unit": "µM"}, {"measurement": "concentration at which reduction of adhesion is significant/apparent", "setting": "BJ cells [10]", "result": 5, "unit": "µM"}, {"measurement": "concentration at which reduction of adhesion is significant/apparent", "setting": "SCC-15 cells [11]", "result": 5, "unit": "µM"}, {"measurement": "activation of the caspases 3/7 compared to non-treated control", "setting": "[12]", "result": "8- to 18 fold"}]}, {"smiles": "COc1c(O)cc2oc3cc(O)c(CC=C(C)C)c(O)c3c(=O)c2c1CC=C(C)C", "note": "[α-Mangostin (21), α-Mangostin, reference compound]", "values": [{"measurement": "IC50", "setting": "TsTS; IC50 Assessment, 20 µM dUMP, 50 µM meTHF", "result": "> 100", "unit": "µM"}, {"measurement": "remaining activity at 100 µM", "setting": "TsTS; 20 µM dUMP, 50 µM meTHF", "result": 85, "unit": "%"}, {"measurement": "remaining activity at 10 µM", "setting": "CeTS", "result": 79, "unit": "%"}, {"measurement": "remaining activity at 100 µM", "setting": "CeTS", "result": 27, "unit": "%"}, {"measurement": "remaining activity at 10 µM", "setting": "mTS", "result": 75, "unit": "%"}, {"measurement": "remaining activity at 100 µM", "setting": "mTS", "result": 5, "unit": "%"}, {"measurement": "remaining activity at 10 µM", "setting": "hTS", "result": 89, "unit": "%"}, {"measurement": "remaining activity at 100 µM", "setting": "hTS", "result": 19, "unit": "%"}, {"measurement": "LC50", "setting": "C. elegans [13]", "result": 3.8, "unit": "µM"}]}]}
